Data as given in US9238069B2, “Method of sensitizing cancer cells to the cytotoxic effects of death receptor ligands in cancer treatment” (The United States of America, as represented by the …, priority 2009, dated 2016).

Columns and labels:
ACHN renal cancer cells = experiment: SRB dose-response assay for synergy with TRAIL (percent growth inhibition); assay type: cell-based; details: 4 h presensitization, TRAIL 20 ng/mL, FIG. 11
From the text: FIG. 11 depicts the dose-response curves for withanolide E and withanolide S in the presence of TRAIL. The y-axis represents percent growth inhibition for ACHN renal cancer cells. The lines labeled “−TRAIL” are the dose-response curves for withanolide E and withanolide S in the absence of TRAIL. The lines labeled “predicted +TRAIL” is the predicted additive percent growth inhibition resulting from addition of the growth inhibition due to withanolide E and withanolide S plus TRAIL. The lines labeled “Actual +TRAIL” is the actual percent growth inhibition determined by the assay.
This Example illustrates another aspect of the assay. […] Controls were combined on each assay plate and included: SRB background absorbance (no cells), untreated (DMSO-only) cells, TRAIL-only cells, cytotoxicity positive control −TRAIL (sanguinarine hydrochloride; one concentration), and synergy positive control +TRAIL (bortezomib; one conconcentrion plus a dose-response range).
Compound dilutions were prepared in clear test medium and added to cells. […] Dye was resolubilized by addition of 10 mM TRIZMA base solution (30 μL) and resuspended on a rotary shaker for a few minutes before reading the plates for absorbance at 520 nm using a Safire plate reader (Tecan Group Ltd., Männedorf, Switzerland). […]

caspase-8 in ACHN cells = experiment: Western blot of caspase-8 cleavage after sensitizer plus TRAIL; assay type: cell-based; details: compound 10 μM, sensitized 4 h, then TRAIL 40 ng/mL, FIG. 5
Procedure: This Example illustrates cleavage of caspase resulting from treatment of cells with anolides in combination with TRAIL. ACHN cells were seeded into 6-well tissue culture plates at […] cells/well in clear test medium and the next day compound was added to a final concentration of 10 μM. Cells were sensitized for 4 h followed by addition of TRAIL to 40 ng/mL final concentration. Cells were harvested in lysis buffer at short intervals after addition of the TRAIL reagent using 165 μL per well. Lysis buffer contained: 50 mM Tris-Cl (pH 8.0), 300 mM NaCl, 5 mM EDTA, 0.5% Triton X-100, 40 μM Z-VAD-FMK, plus one mini-complete protease inhibitor tablet (Roche, Mannheim, Germany) or 100 μL Halt Protease Inhibitor Single-Use Cocktail (Pierce Biotechnology, Inc., Rockford, Ill.) per 6 mL buffer. Lysates were clarified by centrifugation at 4° C. for 15 min at 15,000 rpm and protein content normalized using the bicinchonic acid (BCA) assay (Pierce Biotechnology, Inc.).
Lysates were run under reducing conditions at 20 μg total protein per lane, in NuPAGE 4-12% Bis-Tris gels (1.0 mm×12 well; Invitrogen), using MESS DS running buffer and added antioxidant in the upper chamber. […]
The Western blots determined using the above protocol for withanolide E is depicted in FIG. 5.

| Substance | percent growth inhibition in combination with TRAIL versus sensitizer alone or TRAIL alone (synergistic response) (ACHN renal cancer cells) | cleavage of caspase-8 (caspase-8 in ACHN cells) |
| --- | --- | --- |
| withanolide E | substantially greater | resulted in the cleavage of caspase-8 |
| withanolide S | substantially greater |  |
